Source: the supplement of paper PMC13380429

Tests used:
Conditions in all cases: 72 h
Caco-2 [1] = test: cell viability relative to DMSO; higher = less toxic
Vero E6 [2] = test: as above
U2OS [3] = test: as above
HepG2 [4] = test: as above
Calu-3 [5] = test: as above
Caco-2 [6] = test: relative viability EC50 (midpoint between 100% and the lowest measured viability); higher = less toxic
Vero E6 [7] = test: as above
HepG2 [8] = test: as above
Caco-2 [9] = test: drug sensitivity score (DSS) for viability; higher = more toxic; extreme values may be limits of the assay
Vero E6 [10] = test: as above
U2OS [11] = test: as above
HepG2 [12] = test: as above
Calu-3 [13] = test: as above
U2OS [14] = test: relative viability EC50 (midpoint between 100% and the lowest measured viability); higher = less toxic
Calu-3 [15] = test: as above

SMILES	cell viability (Caco-2 [1]; 1 nM) [%]	cell viability (Caco-2 [1]; 10 nM) [%]	cell viability (Caco-2 [1]; 100 nM) [%]	cell viability (Caco-2 [1]; 1000 nM) [%]	cell viability (Caco-2 [1]; 10000 nM) [%]	cell viability (Vero E6 [2]; 1 nM) [%]	cell viability (Vero E6 [2]; 10 nM) [%]	cell viability (Vero E6 [2]; 100 nM) [%]	cell viability (Vero E6 [2]; 1000 nM) [%]	cell viability (Vero E6 [2]; 10000 nM) [%]	cell viability (U2OS [3]; 1 nM) [%]	cell viability (U2OS [3]; 10 nM) [%]	cell viability (U2OS [3]; 100 nM) [%]	cell viability (U2OS [3]; 1000 nM) [%]	cell viability (U2OS [3]; 10000 nM) [%]	cell viability (HepG2 [4]; 1 nM) [%]	cell viability (HepG2 [4]; 10 nM) [%]	cell viability (HepG2 [4]; 100 nM) [%]	cell viability (HepG2 [4]; 1000 nM) [%]	cell viability (HepG2 [4]; 10000 nM) [%]	cell viability (Calu-3 [5]; 1 nM) [%]	cell viability (Calu-3 [5]; 10 nM) [%]	cell viability (Calu-3 [5]; 100 nM) [%]	cell viability (Calu-3 [5]; 1000 nM) [%]	cell viability (Calu-3 [5]; 10000 nM) [%]	relative viability EC50 (Caco-2 [6]) [µM]	relative viability EC50 (Vero E6 [7]) [µM]	relative viability EC50 (HepG2 [8]) [µM]	drug sensitivity score (Caco-2 [9])	drug sensitivity score (Vero E6 [10])	drug sensitivity score (U2OS [11])	drug sensitivity score (HepG2 [12])	drug sensitivity score (Calu-3 [13])	relative viability EC50 (U2OS [14]) [µM]	relative viability EC50 (Calu-3 [15]) [µM]
Cc1cc(Nc2cc(N3CCN(C)CC3)nc(Sc3ccc(NC(=O)C4CC4)cc3)n2)n[nH]1 [tozasertib]	97.1	91.1	96.2	97.7	77.9	107	107	100	84.2	85	105	101	101	86.2	54.9	103	99.2	70.4	72.4	36.4	110	97.6	96.8	89.1	70.9	> 10	> 10	0.448	1.1	1.6	4.4	9.1	2.2	–	–
O=c1[nH]c([C@@H]2CCCN2)nc2c1oc1ccc(Cl)cc12	96.9	87	87.5	93.5	83.1	103	99.7	104	90.9	71.8	95	100	93.4	96.7	90.9	97	98.2	104	83.5	60.3	–	–	–	–	–	> 10	–	–	1.2	2.4	0	4.2	–	> 10	–
OC[C@H]1O[C@@H](Oc2cc3c(O)cc(O)cc3[o+]c2-c2ccc(O)c(O)c2)[C@H](O)[C@@H](O)[C@@H]1O [kuromanin]	98.3	95.4	86.5	100	96.7	103	102	103	98	94.4	96.6	99.8	96.6	99.5	93.6	–	–	–	–	–	98.7	111	89.7	102	98.8	> 10	> 10	–	0	0	0	–	0	> 10	> 10
O=C1Nc2cc(Cl)c(Cl)cc2N2CCNC[C@H]12	110	100	102	92.2	85.9	104	100	100	99.1	95.7	102	94.9	100	95	96.2	–	–	–	–	–	103	95.1	97.3	97.7	92.5	> 10	> 10	–	0.7	0	0	–	0	> 10	> 10
